Test results taken from article PMC6934184, “Selective DNA-PKcs inhibition extends the therapeutic index of localized radiotherapy and chemotherapy” (The Journal of Clinical Investigation, 2019).

Target: T1, MARK4 (Homo sapiens, UniProt Q96L34)
T1 construct: purchased Thermo Fisher Scientific (Life Technologies) SelectScreen
Test: SelectScreen Z'LYTE
Assay type: biochemical
Method in brief: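 Percent values come from Thermo SelectScreen profiling of NU5455, combining activity and binding assays. CSF1R was run in Z'LYTE format at Km app ATP, and CAMK1 in Adapta format with ATP listed at 10.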

T1 sequence (Q96L34 whole entry): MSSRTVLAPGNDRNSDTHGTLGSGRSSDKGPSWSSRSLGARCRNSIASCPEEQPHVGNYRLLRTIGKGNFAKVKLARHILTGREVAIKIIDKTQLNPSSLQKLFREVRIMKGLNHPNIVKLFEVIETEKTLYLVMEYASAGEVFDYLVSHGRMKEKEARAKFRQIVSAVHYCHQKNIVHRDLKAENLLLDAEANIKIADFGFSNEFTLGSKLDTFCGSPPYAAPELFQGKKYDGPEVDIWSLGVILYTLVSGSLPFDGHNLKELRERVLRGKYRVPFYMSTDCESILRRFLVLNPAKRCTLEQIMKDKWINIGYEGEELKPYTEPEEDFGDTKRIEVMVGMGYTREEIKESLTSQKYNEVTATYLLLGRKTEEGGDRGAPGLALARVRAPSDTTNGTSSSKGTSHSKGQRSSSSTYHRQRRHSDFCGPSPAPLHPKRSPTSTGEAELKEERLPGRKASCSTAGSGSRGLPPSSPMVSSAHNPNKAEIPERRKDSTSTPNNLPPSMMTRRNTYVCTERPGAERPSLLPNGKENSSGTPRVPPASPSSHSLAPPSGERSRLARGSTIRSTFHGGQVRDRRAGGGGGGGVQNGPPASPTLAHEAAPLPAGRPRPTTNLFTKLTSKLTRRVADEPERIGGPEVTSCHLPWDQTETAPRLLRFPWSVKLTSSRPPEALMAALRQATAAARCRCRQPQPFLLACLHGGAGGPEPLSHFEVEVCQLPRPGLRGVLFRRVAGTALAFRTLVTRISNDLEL

**Q.** Which inhibition at 1 µM does the source give for `CN(C(=O)CN1CCOCC1)c1ccc2sc3c(-c4cccc5c(=O)cc(N6CC7CCC(C6)O7)oc45)cccc3c2c1` [NU5455] here?
**A.** The inhibition at 1 µM was -2%.
